Columns and labels:
[1] = target: T1, GPCR μ with opioids (hMOP) (Homo sapiens, UniProt P35372); assay: Fluorescence spectra of SH-SY5Y cells overexpressing hMOP, marked with pyrene-ketone-cholesterol (4), before and after agonist addition (FIG. 2); format: cell-based; conditions: agonist under saturation conditions, probe of formula (4)
T1 construct: expressed in transfected cells; host or cells: SH-SY5Y neuroblastoma cells
Method: Confluence cells immobilised on a 22 by 22 mm silica slice are placed in a 35 mm diameter Petri dish and covered by 1.2 ml of a 0.22 μm-filtered solution and composed of 15 ml of base medium (DMEM with 1% foetal calf serum) plus 1 ml solution of methyl-β-cyclodextrins loaded with Pyrene cholesterol (4) or (7). The mixture is left to incubate at 37° C. for between 1 and 15 mn according to the desired marking rate. Then the medium is replaced 4 times with 1.2 ml of PBS Ca++Mg++.
The images are produced with a Zeiss axioplanll microscope using a 63× oil-immersion objective (Plan-Neofluoar, NA=1.4) and a CCD camera (C2400-75i Hamamatsu) equipped with the Argus 20 system (Hamamatsu) which removes the background noise directly on the preparation corresponding to the following mounting: after the slice carrying the marked cells has been turned upside-down on a slide provided with cross-pieces, a chamber the volume of which is close to 120 μl is thus produced and filled with DMEM medium . […]
The fluorescence spectra are produced on these mountings on an AMINCO 500 spectrofluorimeter. The excitation wavelength is 335 nm bp 5 nm, the emission spectrum being recorded after 370 nm bp 4 nm and with a resolution of 0.25 nm per point.

[2] = in DMPC; cited from earlier work

T1 sequence (P35372 whole entry): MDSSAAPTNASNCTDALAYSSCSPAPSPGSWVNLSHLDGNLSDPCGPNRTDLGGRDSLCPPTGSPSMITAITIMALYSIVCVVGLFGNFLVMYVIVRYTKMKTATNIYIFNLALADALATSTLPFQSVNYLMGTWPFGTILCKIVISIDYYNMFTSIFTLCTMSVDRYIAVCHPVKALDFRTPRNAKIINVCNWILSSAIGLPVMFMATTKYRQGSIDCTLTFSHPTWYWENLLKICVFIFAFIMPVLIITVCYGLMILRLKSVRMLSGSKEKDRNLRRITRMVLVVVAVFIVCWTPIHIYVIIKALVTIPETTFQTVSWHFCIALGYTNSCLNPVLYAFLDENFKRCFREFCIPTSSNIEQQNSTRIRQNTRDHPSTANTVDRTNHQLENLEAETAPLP

melting point	Structure (SMILES)	also measured
84 °C	C=C(CCc1ccc2ccc3cccc4ccc1c2c34)[C@H]1CC[C@H]2[C@@H]3CC=C4C[C@@H](O)CC[C@]4(C)[C@H]3CC[C@]12C	–
–	C[C@@H](NC(=O)[C@@H](N)Cc1ccc(O)cc1)C(=O)NCC(=O)N(C)[C@@H](Cc1ccccc1)C(=O)NCCO [DAMGO]	change of membrane polarity (band I1 intensity, I3 and I4 unchanged) after addition of the agonist [1]: reduction in the membrane polarity
–	CC(C)CCC[C@@H](C)[C@H]1CC[C@H]2[C@@H]3CC=C4C[C@@H](O)CC[C@]4(C)[C@H]3CC[C@]12C [cholesterol]	solubility in membrane lipids [2]: 68%
199 °C	C[C@]12CC[C@H]3[C@@H](CC=C4C[C@@H](O)CC[C@@]43C)[C@@H]1CC[C@@H]2C(=O)CCc1ccc2ccc3cccc4ccc1c2c34 [pyrene-ketone-cholesterol, 3β-hydroxy-pregn-5-ene-21-(1-methylpyrenyl)-20-one]	–

— patent US8211881B2, “Cholesterol-mimetic pyrene probes” (Centre National de la Recherche Scientifique, priority 2005, dated 2012)
